{"source": "patent US20130252816A1", "about": "“HERBICIDAL COMPOSITION AND USE THEREOF” (Syngenta Crop Protection LLC, priority 2010, published 2013)", "key": {"treated plants": {"test_system": "treated plants", "details": "after treatment, glyphosate per se; cited from earlier work"}, "Veronica persica": {"test_system": "Veronica persica", "assay": "Example 2: alcohol ethoxylate adjuvants without glyphosate, visual % damage, tracksprayer 300 l/ha", "type": "in vivo", "from_the_text": "(§1) The effect of different types of alcohol ethoxylate (branched—Genapol X-series, and unbranched—Genapol O-series, differing degrees of ethoxylation, see Table 3 below for more details), on unwanted vegetation (broadleaf weed and grass species), in the absence of glyphosate, was investigated and compared to untreated (water only) control weeds.\n(§2) Troughs (measuring 16 cm by 13 cm by 5 cm) were filled with local field soil. Seeds of Veronica persica, Stellaria media, Trifolium repens and Poa annua were sown 24 days before application of test samples. Plants were grown in the glasshouse at 18 to 20° C. and 60% relative humidity. Application of alcohol ethoxylate test samples was carried out using a tracksprayer, spraying at a rate of 300 l/ha. Plants were kept in glasshouse and visual assessment of the estimated percentage damage to the plant was carried out 1, 7, and 14 days from application.\n(§3) Damage was assessed as wilting, desiccation or any other kind of visual injury in comparison to the untreated control (water only)."}, "Poa annua": {"test_system": "Poa annua", "assay": "Example 2: alcohol ethoxylate adjuvants without glyphosate, visual % damage, tracksprayer 300 l/ha", "type": "in vivo", "from_the_text": "as §1, §2, §3"}, "Trifolium repens": {"test_system": "Trifolium repens", "assay": "Example 2: alcohol ethoxylate adjuvants without glyphosate, visual % damage, tracksprayer 300 l/ha", "type": "in vivo", "from_the_text": "as §1, §2, §3"}, "Stellaria media": {"test_system": "Stellaria media", "assay": "Example 2: alcohol ethoxylate adjuvants without glyphosate, visual % damage, tracksprayer 300 l/ha", "type": "in vivo", "from_the_text": "as §1, §2, §3"}, "[1]": {"test_system": "broadleaf weed and grass species", "assay": "Example 2: overall statement on alcohol ethoxylates without glyphosate", "type": "in vivo", "details": "absence of glyphosate", "from_the_text": "as §1, §2, §3"}}, "data": [{"molecule": "O=C(O)CNCP(=O)(O)O", "note": "[glyphosate, N-(phosphonomethyl)glycine]", "values": [{"measurement": "time until visual symptoms of phytotoxicity appear", "setting": "treated plants", "value": "7 to 10", "unit": "days"}]}, {"molecule": "Iso-tridecyl alcohol polyglycol ether with 8 moles of ethoxylation [GenapolX080]", "values": [{"measurement": "mean % damage 1 daa Veronica persica", "setting": "Veronica persica; adjuvant 1% w/v", "value": 5, "unit": "%"}, {"measurement": "mean % damage 7 daa Veronica persica", "setting": "Veronica persica; adjuvant 1% w/v", "value": 5, "unit": "%"}, {"measurement": "mean % damage 14 daa Veronica persica", "setting": "Veronica persica; adjuvant 1% w/v", "value": 5, "unit": "%"}, {"measurement": "mean % damage 1 daa Veronica persica", "setting": "Veronica persica; adjuvant 1.5% w/v", "value": 10, "unit": "%"}, {"measurement": "mean % damage 7 daa Veronica persica", "setting": "Veronica persica; adjuvant 1.5% w/v", "value": 20, "unit": "%"}, {"measurement": "mean % damage 14 daa Veronica persica", "setting": "Veronica persica; adjuvant 1.5% w/v", "value": 20, "unit": "%"}, {"measurement": "mean % damage 1 daa Veronica persica", "setting": "Veronica persica; adjuvant 2% w/v", "value": 20, "unit": "%"}, {"measurement": "mean % damage 7 daa Veronica persica", "setting": "Veronica persica; adjuvant 2% w/v", "value": 10, "unit": "%"}, {"measurement": "mean % damage 14 daa Veronica persica", "setting": "Veronica persica; adjuvant 2% w/v", "value": 20, "unit": "%"}, {"measurement": "mean % damage 1 daa Veronica persica", "setting": "Veronica persica; adjuvant 2.5% w/v", "value": 30, "unit": "%"}, {"measurement": "mean % damage 7 daa Veronica persica", "setting": "Veronica persica; adjuvant 2.5% w/v", "value": 40, "unit": "%"}, {"measurement": "mean % damage 14 daa Veronica persica", "setting": "Veronica persica; adjuvant 2.5% w/v", "value": 40, "unit": "%"}, {"measurement": "mean % damage 1 daa Poa annua", "setting": "Poa annua; adjuvant 1% w/v", "value": 0, "unit": "%"}, {"measurement": "mean % damage 7 daa Poa annua", "setting": "Poa annua; adjuvant 1% w/v", "value": 10, "unit": "%"}, {"measurement": "mean % damage 14 daa Poa annua", "setting": "Poa annua; adjuvant 1% w/v", "value": 0, "unit": "%"}, {"measurement": "mean % damage 1 daa Poa annua", "setting": "Poa annua; adjuvant 1.5% w/v", "value": 10, "unit": "%"}, {"measurement": "mean % damage 7 daa Poa annua", "setting": "Poa annua; adjuvant 1.5% w/v", "value": 30, "unit": "%"}, {"measurement": "mean % damage 14 daa Poa annua", "setting": "Poa annua; adjuvant 1.5% w/v", "value": 5, "unit": "%"}, {"measurement": "mean % damage 1 daa Poa annua", "setting": "Poa annua; adjuvant 2% w/v", "value": 40, "unit": "%"}, {"measurement": "mean % damage 7 daa Poa annua", "setting": "Poa annua; adjuvant 2% w/v", "value": 50, "unit": "%"}, {"measurement": "mean % damage 14 daa Poa annua", "setting": "Poa annua; adjuvant 2% w/v", "value": 10, "unit": "%"}, {"measurement": "mean % damage 1 daa Poa annua", "setting": "Poa annua; adjuvant 2.5% w/v", "value": 40, "unit": "%"}, {"measurement": "mean % damage 7 daa Poa annua", "setting": "Poa annua; adjuvant 2.5% w/v", "value": 50, "unit": "%"}, {"measurement": "mean % damage 14 daa Poa annua", "setting": "Poa annua; adjuvant 2.5% w/v", "value": 20, "unit": "%"}, {"measurement": "mean % damage 1 daa Trifolium repens", "setting": "Trifolium repens; adjuvant 1% w/v", "value": 20, "unit": "%"}, {"measurement": "mean % damage 7 daa Trifolium repens", "setting": "Trifolium repens; adjuvant 1% w/v", "value": 20, "unit": "%"}, {"measurement": "mean % damage 14 daa Trifolium repens", "setting": "Trifolium repens; adjuvant 1% w/v", "value": 15, "unit": "%"}, {"measurement": "mean % damage 1 daa Trifolium repens", "setting": "Trifolium repens; adjuvant 1.5% w/v", "value": 50, "unit": "%"}, {"measurement": "mean % damage 7 daa Trifolium repens", "setting": "Trifolium repens; adjuvant 1.5% w/v", "value": 60, "unit": "%"}, {"measurement": "mean % damage 14 daa Trifolium repens", "setting": "Trifolium repens; adjuvant 1.5% w/v", "value": 10, "unit": "%"}, {"measurement": "mean % damage 1 daa Trifolium repens", "setting": "Trifolium repens; adjuvant 2% w/v", "value": 50, "unit": "%"}, {"measurement": "mean % damage 7 daa Trifolium repens", "setting": "Trifolium repens; adjuvant 2% w/v", "value": 60, "unit": "%"}, {"measurement": "mean % damage 14 daa Trifolium repens", "setting": "Trifolium repens; adjuvant 2% w/v", "value": 15, "unit": "%"}, {"measurement": "mean % damage 1 daa Trifolium repens", "setting": "Trifolium repens; adjuvant 2.5% w/v", "value": 50, "unit": "%"}, {"measurement": "mean % damage 7 daa Trifolium repens", "setting": "Trifolium repens; adjuvant 2.5% w/v", "value": 60, "unit": "%"}, {"measurement": "mean % damage 14 daa Trifolium repens", "setting": "Trifolium repens; adjuvant 2.5% w/v", "value": 10, "unit": "%"}, {"measurement": "mean % damage 1 daa Stellaria media", "setting": "Stellaria media; adjuvant 1% w/v", "value": 10, "unit": "%"}, {"measurement": "mean % damage 7 daa Stellaria media", "setting": "Stellaria media; adjuvant 1% w/v", "value": 10, "unit": "%"}, {"measurement": "mean % damage 14 daa Stellaria media", "setting": "Stellaria media; adjuvant 1% w/v", "value": 5, "unit": "%"}, {"measurement": "mean % damage 1 daa Stellaria media", "setting": "Stellaria media; adjuvant 1.5% w/v", "value": 10, "unit": "%"}, {"measurement": "mean % damage 7 daa Stellaria media", "setting": "Stellaria media; adjuvant 1.5% w/v", "value": 10, "unit": "%"}, {"measurement": "mean % damage 14 daa Stellaria media", "setting": "Stellaria media; adjuvant 1.5% w/v", "value": 0, "unit": "%"}, {"measurement": "mean % damage 1 daa Stellaria media", "setting": "Stellaria media; adjuvant 2% w/v", "value": 20, "unit": "%"}, {"measurement": "mean % damage 7 daa Stellaria media", "setting": "Stellaria media; adjuvant 2% w/v", "value": 20, "unit": "%"}, {"measurement": "mean % damage 14 daa Stellaria media", "setting": "Stellaria media; adjuvant 2% w/v", "value": 10, "unit": "%"}, {"measurement": "mean % damage 1 daa Stellaria media", "setting": "Stellaria media; adjuvant 2.5% w/v", "value": 30, "unit": "%"}, {"measurement": "mean % damage 7 daa Stellaria media", "setting": "Stellaria media; adjuvant 2.5% w/v", "value": 30, "unit": "%"}, {"measurement": "mean % damage 14 daa Stellaria media", "setting": "Stellaria media; adjuvant 2.5% w/v", "value": 10, "unit": "%"}, {"measurement": "course of damage over time (recovery)", "setting": "[1]", "value": "the level of damage decreases from day 14 onwards"}]}]}
